The record followed here is patent publication US10626113B2, “Phosphodiesterase inhibitors and uses thereof” (THE TRUSTEES OF COLUMBIA UNIVERSITY IN THE CITY OF NEW YORK, priority 2012, dated 2020).

One test has as its target PDE5 (Homo sapiens (Human), UniProt O76074). Briefly: PDE5 inhibition assay (BPS PDE assay kit, fluorescence polarization). Format: biochemical. As to the method: Materials and Methods: PDE5 inhibition was assayed at BPS Bioscience (San Diego, Calif.) using BPS PDE assay kits (BPS Catalog number 60300, enzyme lot 090810). Test compounds were supplied as liquid solutions of 10 mM concentration in DMSO. Sildenafil, used as a standard was dissolved in DMSO. Intermediate dilutions were 10% DMSO in PDE assay buffer and tests at ranges from 0.1 to 100 nM. 0.1 ng of enzyme was used per reaction, and the substrate was 100 nM FAM-cGMP.
Assay conditions: A series of dilutions of the test compounds were prepared with 10% DMSO in assay buffer and 5 μl of the dilution was added to a 50 μl reaction so that the final concentration of DMSO is 1% in all of reactions. The enzymatic reactions were conducted at room temperature for 60 minutes in a 50 μl mixture containing PDE assay buffer, 100 nM FAM-cAMP or 100 nM FAM-cGMP, a PDE enzyme, and the test compound. After the enzymatic reaction, 100 μl of a binding solution (1:100 dilution of the binding agent with the binding agent diluent) was added to each reaction and the reaction was performed at room temperature for 60 minutes. Fluorescence intensity was measured at an excitation of 485 nm and an emission of 528 nm using a Tecan Infinite M1000 microplate reader.
(§1) Data analysis: PDE activity assays were performed in duplicate at each concentration. Fluorescence intensity is converted to fluorescence polarization using the Tecan Magellan6 software. The fluorescence polarization data were analyzed using the computer software, Graphpad Prism. The fluorescence polarization (FPt) in absence of the compound in each data set was defined as 100% activity. In the absence of PDE and the compound, the value of fluorescent polarization (FPb) in each data set was defined as 0% activity. The percent activity in the presence of the compound was calculated according to the following equation: % activity=(FP−FPb)/(FPt−FPb)×100%, where FP=the fluorescence polarization in the presence of the compound.
The values of % activity versus a series of compound concentrations were then plotted using non-linear regression analysis of Sigmoidal dose-response curve generated with the equation Y=B+(T−B)/1+10^((LogEC50-X)×Hill Slope), where Y=percent activity, B=minimum percent activity, T=maximum percent activity, X=logarithm of compound and Hill Slope=slope factor or Hill coefficient. The IC50 value was determined by the concentration causing a half-maximal percent activity.

The test system of another test is APP/PS1 mice. Briefly: Preliminary studies with sildenafil in APP/PS1 mice. Format: in vivo. Conditions: persist beyond the administration of the inhibitor. As to the method:
Slices from transgenic mice treated with the compound had 226.23%±6.72 potentiation compared to 164.12%±10.37 in slices from vehicle-treated transgenic mice (FIG. 3). Residual potentiation recorded during the last 5 minutes of a 2 hr recording following tetanic stimulation of the Schaffer collateral fibers at the CA3-CA1 connection.

The next test concerns PDE6. Briefly: PDE6 inhibition assay (fluorescence polarization). Format: biochemical. Conditions: Table 1. As to the method: The enzymatic reactions were conducted at room temperature for 60 minutes in a 50 μl mixture containing PDE assay buffer, 100 nM FAM-cAMP or 100 nM FAM-cGMP, a PDE enzyme, and the test compound. After the enzymatic reaction, 100 μl of a binding solution (1:100 dilution of the binding agent with the binding agent diluent) was added to each reaction and the reaction was performed at room temperature for 60 minutes. Fluorescence intensity was measured at an excitation of 485 nm and an emission of 528 nm using a Tecan Infinite M1000 microplate reader.
as §1, with “Fluorescence” for “Data analysis: PDE activity assays were performed in duplicate at each concentration. Fluorescence”
The IC50 value was determined by the concentration causing a half-maximal percent activity.
(In fluorescence polarisation assays a small probe gives low polarisation when free and higher when bound to something large.)

Broadly, the IC50 is the midpoint of a concentration-inhibition curve.

`COc1ccc(CNc2c3c(nc4ccc(Br)cc24)CCNC3)cc1Cl` [F, 8-bromo-N-(3-chloro-4-methoxybenzyl)-1,2,3,4-tetrahydrobenzo[b][1,6]naphthyridin-10-amine] gave an IC50 against PDE5 (Table 1, 100 nM FAM-cGMP) of 5.4 nM.

With `CCCc1nn(C)c2c(=O)[nH]c(-c3cc(S(=O)(=O)N4CCN(C)CC4)ccc3OCC)nc12` [sildenafil], the “effects on synaptic and cognitive abnormalities in APP/PS1 mice” value in the test with APP/PS1 mice is “prolonged beneficial effects”.

Regarding `CCc1cc(C#N)cc2c(NCc3ccc(OC)c(Cl)c3)c3c(nc12)CCN(C)C3` [D, 10-[(3-chloro-4-methoxybenzyl)amino]-6-ethyl-2-methyl-1,2,3,4-tetrahydrobenzo[b][1,6]naphthyridine-8-carbonitrile], the IC50 was determined as 0.07 nM on PDE5 (Table 1, 100 nM FAM-cGMP) and 30 nM with PDE6.

Consider `COc1ccc(CNc2c3c(nc4ccc(C#N)cc24)NCCNC3=O)cc1Cl` [E, 6-[(3-chloro-4-methoxybenzyl)amino]-5-oxo-2,3,4,5-tetrahydro-1H-[1,4]diazepino[5,6-b]quinoline-8-carbonitrile], for which the IC50 at PDE5 (Table 1, 100 nM FAM-cGMP) came out at 43.8 nM; in the test on PDE6, 6620 nM.

For the compound `[2H]C([2H])(Nc1c2c(nc3ccc(C#N)cc13)CCN(C(C)=O)C2)c1ccc(OC)c(Cl)c1` [M], the IC50 on PDE5 (Table 3) is 0.044 nM. In other words, the picomolar range.

On PDE5 (Table 1, 100 nM FAM-cGMP), `COc1ccc(CNc2c3c(nc4ccc(Br)cc24)CCN(C)C3)cc1Cl` [A, 8-bromo-N-(3-chloro-4-methoxybenzyl)-2-methyl-1,2,3,4-tetrahydrobenzo[b][1,6]naphthyridin-10-amine] showed an IC50 of 21.6 nM.

Take `COc1ccc(CNc2c3c(nc4ccc(C#N)cc24)CCNC3)cc1Cl` [G, 10-((3-chloro-4-methoxybenzyl)amino)-1,2,3,4-tetrahydrobenzo[b][1,6]naphthyridine-8-carbonitrile]: the IC50 against PDE5 (Table 1, 100 nM FAM-cGMP) was 1.55 nM; in the test with PDE6 it was > 100 nM.
